Source: patent US10786580B2, “Cholecystokinin 2 receptor targeted NIR imaging and use thereof” (On Target Laboratories, LLC, priority 2016, dated 2020)
Like-named read-outs stand apart in the source and are kept apart here.

Assays:
CCK1R = biological target: T1, CCK1R (Homo sapiens, UniProt P32238); conditions: cited from earlier work
T1 sequence (P32238 1-428): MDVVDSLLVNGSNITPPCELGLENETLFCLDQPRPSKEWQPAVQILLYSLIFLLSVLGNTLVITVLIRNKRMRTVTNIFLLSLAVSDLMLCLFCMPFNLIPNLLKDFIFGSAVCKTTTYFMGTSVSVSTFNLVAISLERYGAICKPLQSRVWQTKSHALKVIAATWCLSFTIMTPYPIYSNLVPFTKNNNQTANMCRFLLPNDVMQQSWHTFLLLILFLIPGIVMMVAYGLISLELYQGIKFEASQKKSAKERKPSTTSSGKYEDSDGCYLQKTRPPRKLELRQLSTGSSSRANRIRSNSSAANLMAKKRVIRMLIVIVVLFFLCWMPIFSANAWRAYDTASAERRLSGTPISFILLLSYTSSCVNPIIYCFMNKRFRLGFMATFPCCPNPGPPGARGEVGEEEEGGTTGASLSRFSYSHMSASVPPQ

CCK2R [1] = biological target: T2, CCK2R (Homo sapiens, UniProt P32239); conditions: cited from earlier work
T2 sequence (P32239 1-447): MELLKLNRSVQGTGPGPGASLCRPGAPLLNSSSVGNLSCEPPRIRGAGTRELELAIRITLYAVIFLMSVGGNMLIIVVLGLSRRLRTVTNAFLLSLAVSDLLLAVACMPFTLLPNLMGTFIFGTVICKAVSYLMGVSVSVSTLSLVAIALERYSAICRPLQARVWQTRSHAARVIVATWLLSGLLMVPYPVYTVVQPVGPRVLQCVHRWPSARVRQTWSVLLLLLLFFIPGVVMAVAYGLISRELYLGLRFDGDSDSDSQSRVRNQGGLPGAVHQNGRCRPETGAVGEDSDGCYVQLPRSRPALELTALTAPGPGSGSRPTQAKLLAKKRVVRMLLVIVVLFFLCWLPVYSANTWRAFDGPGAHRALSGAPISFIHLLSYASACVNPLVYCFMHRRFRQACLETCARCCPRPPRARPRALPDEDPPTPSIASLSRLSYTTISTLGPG

[2] = system: subcutaneous PANC-1 tumor; conditions: oral Z-360 along with gemcitabine, cited from earlier work
[3] = Excitation and emission spectra; type: physicochemical; conditions: FIG. 12
Text: FIG. 12 depicts the chemical structure, excitation and emission spectra of compound 21 (OTL81).

[4] = system: HEK-CCK2R tumor xenograft; experiment: Whole-body imaging and ex vivo tissue biodistribution in mice bearing HEK-CCK2R tumor xenografts
Protocol: (§1) FIG. 2A illustrates the overlay of whole body fluorescence image over white light images after adjusting the threshold for compound 40. HEK-CCK2R tumor xenograft bearing mice were injected with 10 nmol of compound 1 and imaged with IVIS imager (ex=745 nm, em=ICG, exposure time=1 s) at 2 h post-injection. After imaging, selected tissues were harvested, and tissues were imaged with IVIS imager (ex=745 nm, em=ICG, exposure time=1 s).
as §1, with “FIG. 2C depicts” for “FIG. 2A illustrates”, “compound 41.” for “compound 40.”, “[…]” for “compound 1”
as §1, with “FIG. 5A” for “FIG. 2A”, “the analysis of compound 21” for “the”, “the threshold.” for “the threshold for compound 40.”, “of 21” for “of compound 1”
FIG. 9 depicts a head-to-head comparison of fluorescence in the tumors from the mice injected with CCK2R-targeted-NIR dye compounds 21, 40-44. Overlay of tumor fluorescence image over white light images. HEK-CCK2R tumor xenograft bearing mice were injected with 10 nmol of requisite compound and imaged with IVIS imager at 2 h post-injection. After imaging, tumor tissues were harvested, and imaged with IVIS imager (ex=745 nm, em=ICG, exposure time=1 s).
FIG. 14E depicts the in vivo efficacy and specificity of 21 by whole-body imaging with nude mice bearing HEK-CCK2R tumors.
FIG. 14F depicts the ex vivo tissue biodistribution of mice of FIG. 14E dissecting after whole-body imaging.
Athymic female nude (nu/nu) mice (5 weeks old, 18-20 g) were purchased from Envigo (Indianapolis, Ind.) and maintained on normal rodent diet (Teklad, Wis.). Animals were housed 5/cage in a barrier, pathogen-free cloaked rack. Autoclaved tap water and food were given as needed. The animals were housed in a sterile environment on a standard 12 hour light-dark cycle for the duration of the study. […]
six-weeks-old female nu/nu mice were inoculated subcutaneously with HEK-CCK2 cells (5.0×10^6/mouse in 50% high concentrated matrigel in GIBCO medium) on the shoulder. Growth of the tumors was measured in perpendicular directions every 2 days using a caliper (body weights were monitored on the same schedule), and the volumes of the tumors were calculated as 0.5×L×W^2 (L=longest axis and W=axis perpendicular to L in millimeters). […]

HEK-CCK2 cells = experiment: Epi-fluorescence microscopy of binding to CCK2R expressing HEK cells; type: cell-based, human; conditions: FIGS. 14c & d
Protocol: (§2) HEK-CCK2 cells (a human embryonic kidney cells transfected with CCK2 receptor) were a kind gift from Dr. Mark Hellmich (University of Texas Medical Branch, Galveston, Tex.) and grown as a monolayer using Dulbecco's Modified Eagles Medium (GIBCO) (Gibco, NY) 10% heat-inactivated fetal bovine serum (Atlanta Biological, GA) and 1% penicillin streptomycin (Gibco, NY) in a 5% carbon dioxide: 95% air-humidified atmosphere at 37° C. for at least six passages before they were used for the assays.

CCK2R [5] = biological target: T2, CCK2R; experiment: In vitro binding of CCK2R-NIR compounds to HEK-CCK2R cells (cell bound fluorescence); design: expressed in transfected cells; host or cells: HEK (human embryonic kidney) cells, HEK-CCK2R, gift from Dr. Mark Hellmich (UTMB); conditions: for Kd: 1 h at 37° C.
Protocol: (§3) FIG. 4 depicts the binding affinities of CCK2R-NIR compounds 21, 42-44 to CCK2R. CCK2R-positive HEK-CCK2R cancer cells were incubated for 1 h at 37° C. with increasing concentrations of compounds. Media was then removed, washed with fresh media three times, and replaced with PBS. Cell bound fluorescence was assayed as using fluorometer.
CCK2R-positive HEK-CCK2R cancer cells were incubated for 1 h at 37° C. with increasing concentrations of compounds. Media was then removed, washed with fresh media three times, and replaced with PBS. Cell bound fluorescence was assayed as using fluorometer.
as §3, with “13 illustrates” for “4 depicts”, “affinity” for “affinities”, “of” for “of CCK2R-NIR”, “[…]” for “21, 42-44”, “compound 21.” for “compounds.”
as §2
HEK cells that overexpress CCK2 were seeded into a T75 flask and allowed to form a monolayer over 48 h. After trypsin digestion, release cells were transferred into centrifuge tubes (1×10^6 cells/tube) and centrifuged. The medium was replaced with fresh medium containing increasing concentration of requisite CCK2R-Ligand-NIR dye compound in the presence or absence of 100-fold excess the ligand, a high affinity CCK2 receptor antagonist, and incubated for 1 h at 37° C. After rinsing with fresh medium (2×1.0 mL) and PBS (1×1.0 mL), cells were resuspended in PBS (1.0 mL) and cell bound fluorescence was analyzed (100,000 cells/sample) using a fluorometer (Cary, Agilent). The relative binding affinities were calculated using a plot of % cell bound fluorescence versus the log concentration of the test article using GraphPad Prism 4.

[6] = FIG. 14, mice bearing HEK-CCK2R tumor xenografts

| SMILES | selectivity ratio over CCK1R (CCK1R) | Ki (CCK2R [1]) [nM] | inhibition of subcutaneous PANC-1 tumor growth ([2]; compared with either agent alone) [%] | survival compared with the vehicle [2] | Stokes shift [3] [nm] | emission wavelength [3] [nm] | excitation wavelength [3] [nm] | fluorescence intensity in the tumors ([4]; 10 nmol, 2 h post-injection) | tumor uptake, head-to-head comparison ([4]; FIG. 9, 10 nmol, 2 h post-injection, compounds 21, 40-44) | tissue uptake (whole-body imaging and ex vivo biodistribution) [4, 6] | tumor-to-background ratio [4, 6] | labelling of HEK-CCK2 cells (HEK-CCK2 cells) | Kd (CCK2R [5]; FIG. 13, HEK-CCK2R cells, read-out: dissociation constant (KD)) [nM] | Kd (CCK2R [5]; Table 1, CCK2R-positive HEK-CCK2R cancer cells, read-out: KD) [nM] | affinity for CCK2R (in words) (CCK2R [5]; in vitro binding affinity data, HEK-CCK2R cells) |
| --- | --- | --- | --- | --- | --- | --- | --- | --- | --- | --- | --- | --- | --- | --- | --- |
| CC(C)(C)C(=O)CN1C(=O)[C@H](NC(=O)Nc2cccc(C(=O)O)c2)CN(C2CCCCC2)c2ccccc21 [Compound Z-360] | 672 | 0.47 | 27.1 | significantly increased survival | – | – | – | – | – | – | – | – | – | – | – |
| CC(C)(C)C(=O)CN1C(=O)[C@H](NC(=O)Nc2cccc(C(=O)N[C@H](CCC(=O)N[C@@H](Cc3ccc(OC4=C(/C=C/C5=[N+](CCCCS(=O)(=O)[O-])c6ccc(S(=O)(=O)O)cc6C5(C)C)CCC/C4=C\C=C4\N(CCCCS(=O)(=O)O)c5ccc(S(=O)(=O)O)cc5C4(C)C)cc3)C(=O)O)C(=O)O)c2)CN(C2CCCCC2)c2ccccc21 [Compound 21, 4-(2-((E)-2-((E)-2-(4-((S)-2-carboxy-2-((R)-4-carboxy-4-(3-(3-((R)-5-cyclohexyl-1-(3,3-dimethyl-2-oxobutyl)-2-oxo-2,3,4,5-tetrahydro-1H-benzo[b][1,4]diazepin-3-yl)ureido)benzamido)butanamido)ethyl)phenoxy)-3-(2-((E)-3,3-dimethyl-5-sulfo-1-(4-sulfobutyl)indolin-2-ylidene)ethylidene)cyclohex-1-en-1-yl)vinyl)-3,3-dimethyl-5-sulfo-3H-indol-1-ium-1-yl)butane-1-sulfonate] | – | – | – | – | 20 | 796 | 776 | very high fluorescence intensity | highest tumor uptake | solely taken up in CCK2R positive tumors with no accumulation in other tissues | very high | efficiently label | 1 | 0.67 | very high affinity |
